The values that follow come from patent US11091501B2, “Heterocyclic compounds as RSV inhibitors” (Enanta Pharmaceuticals, Inc., priority 2017, dated 2021).

This assay relates to Human RSV-A (“Long” strain). Briefly: RSV in vitro cytoprotection assay (CPE, ATPlite) in HEp-2 cells. The settings on record: human respiratory syncytial virus, 96 h; HEp-2 cells, 4-day incubation, ATPlite readout; read-out: Human RSV-A (“Long” strain) EC50. The class given is cell-based. From the text:
RSV is a single stranded negative sense RNA virus that causes respiratory tract infections which can be dangerous to infants, the elderly, and immunosuppressed individuals. Currently there is no vaccine, and therapeutic options are both costly and of limited effectiveness. These approved treatments are Ribavirin, and Palivizumab/Synagis (a monoclonal antibody). RSV has two genotypes, A and B, which differ primarily in the structure of the virus' surface “G” attachment protein. Our current primary screen focuses on RSV-A and uses an in vitro cytoprotection assay where compounds are added in 2-fold dilutions to cells which are then subjected to fully replicative viral particles. Cell viability is measured several days later along with separate measurements of compound cytotoxicity. This report focuses on the results of our most recent screening of compounds.
HEp-2 cells, (originally derived from tumors grown in irradiated-cortisonised weanling rats that had been injected with epidermoid carcinoma tissue from a person's larynx, but later found to be indistinguishable from HeLa cells by PCR DNA analysis), were used for the culturing of genotype A, “Long” strain RSV. Flasks were inoculated with RSV and viral stocks were collected once cytopathic effect (CPE) was greater than 90%. Viral stocks in 25% sucrose media were snap frozen using liquid nitrogen to increase viral stability. Viral stock titers were quantified by tissue culture infectious dose 50% (TCID50) using 8,000 cells per well and 3-fold viral dilutions across a 96-well plate, cultured for 4 days.
Following extensive parameter testing, the final assay is run as follows: HEp-2 cells are seeded into the inner 60 wells of a 96-well plate at 8,000 cells per well in a volume of 50 μL using Growth Media (DMEM without phenol red, 1% L-Glut, 1% Penn/Strep, 1% nonessential amino acids, 10% FBS). 2-Fold serial dilutions of control and test compounds are added to the wells in duplicate in a total volume of 25 μL. Viral stock is then added to the wells in a volume of […] the total volume of each well to 100 μL. Each 96-well plate has a control column of 6 wells with cells and virus but no compound (negative control, max CPE), a column with cells but no compound or virus (positive control, minimum CPE), and a column with no cells or virus or compound (background plate/reagent control). The control wells with cells but no virus are given an additional 25 uL of growth media containing an equal quantity of sucrose as those wells receiving the viral stock in order to keep consistent in media and volume conditions. The outer wells of the plate are filled with 125 μL of growth media to act as a thermal and evaporative moat around the test wells. Following a 4-day incubation period, the plates are read using ATPlite (50 uL added per well), which quantifies the amount of ATP (a measure of cell health) present in each well. Assay plates are read using the Envision luminometer. In parallel, cytotoxicity is examined on an additional 96-well plate treated in an identical manner, but substituting the 25 μL of viral stock for 25 μL of growth media. […] EC50 ranges are as follows: A<0.01 μM; B 0.01-0.05 μM; C>0.05 μM.
On the technique in general: ATP-based viability assays read luminescence as a measure of living cells.
What is called EC50 is the concentration at which the effect is half-maximal. Consider `O=C(Nc1c(F)cc(F)cc1Cl)c1cc2c(s1)-c1ccc(Cl)cc1N(C(=O)c1ccc(NC(=O)c3cccnc3N3CC4(CCOCC4)C3)cc1)CC2` [Example 84], for which the concentration giving a half-maximal response (EC50) lay within 0.01 to 0.05 µM.
For `Cc1cccc(F)c1NC(=O)c1cc2c(s1)-c1ccc(C(F)(F)F)cc1N(C(=O)c1ccc(NC(=O)c3cccnc3N3CC4(CCOCC4)C3)cc1)CC2` [Example 85] the value was greater than 0.05 µM; for `O=C(Nc1ccc(C(=O)N2CCc3cc(-c4nc5ccccc5[nH]4)sc3-c3ccc(C(F)(F)F)cc32)cc1)c1cccnc1N1CC2(CCOCC2)C1` [Example 86], greater than 0.05 µM; for `O=C(Nc1c(F)cccc1F)c1cc2c(s1)-c1cc(C(F)(F)F)ccc1N(C(=O)c1ccc(NC(=O)c3cccnc3N3CC4(CCOCC4)C3)cc1)CC2` [Example 87], 0.01 to 0.05 µM.
`O=C(Nc1ccc(C(=O)N2CCc3c(sc(C(=O)Nc4c(F)cccc4F)c3F)-c3ccccc32)cc1)c1cccnc1N1CC2(CCOCC2)C1` [Example 88]: the 50% effective concentration (EC50) is less than 0.01 µM.
With `O=C(Nc1ccc(C(=O)N2CCc3c(sc(C(=O)Nc4c(F)cc(F)cc4F)c3F)-c3ccccc32)cc1)c1cccnc1N1CC2(CCOCC2)C1` [Example 89] the figure was less than 0.01 µM.
With `O=C(Nc1ccc(C(=O)N2CCc3c(sc(C(=O)Nc4c(Cl)cccc4Cl)c3F)-c3ccccc32)cc1)c1cccnc1N1CC2(CCOCC2)C1` [Example 90] the figure was 0.01 to 0.05 µM; with `Cc1cccc(F)c1NC(=O)c1sc2c(c1F)CCN(C(=O)c1ccc(NC(=O)c3cccnc3N3CC4(CCOCC4)C3)cc1)c1ccccc1-2` [Example 91], less than 0.01 µM; with `O=C(Nc1ccc(C(=O)N2CCc3c(sc(-c4nc5ccccc5[nH]4)c3F)-c3ccccc32)cc1)c1cccnc1N1CC2(CCOCC2)C1` [Example 92], less than 0.01 µM.
With `Cc1cnc(N2CC3(CCOCC3)C2)c(C(=O)Nc2ccc(C(=O)N3CCc4c(sc(C(=O)Nc5c(F)cccc5F)c4F)-c4ccccc43)cc2)c1` [Example 93] the figure was less than 0.01 µM; with `Cc1cnc(N2CC3(CCOCC3)C2)c(C(=O)Nc2ccc(C(=O)N3CCc4c(sc(C(=O)Nc5c(F)cc(F)cc5F)c4F)-c4ccccc43)cc2)c1` [Example 94], less than 0.01 µM.
In the case of `Cc1cnc(N2CC3(CCOCC3)C2)c(C(=O)Nc2ccc(C(=O)N3CCc4c(sc(C(=O)Nc5c(C)cccc5F)c4F)-c4ccccc43)cc2)c1` [Example 95], the EC50 was less than 0.01 µM.
For `O=C(Nc1c(F)cccc1F)c1cc2c(o1)-c1ccc(F)cc1N(C(=O)c1ccc(NC(=O)c3cccnc3N3CC4(CCOCC4)C3)cc1)CC2` [Example 99] the value was less than 0.01 µM.
With `O=C(Nc1c(F)cc(F)cc1F)c1cc2c(o1)-c1ccc(F)cc1N(C(=O)c1ccc(NC(=O)c3cccnc3N3CC4(CCOCC4)C3)cc1)CC2` [Example 100] the figure was less than 0.01 µM; with `O=C(Nc1c(F)cccc1F)c1nc2c(s1)-c1ccccc1N(C(=O)c1ccc(NC(=O)c3cccnc3N3CC4(CCOCC4)C3)cc1)CC2` [Example 104], less than 0.01 µM; with `O=C(Nc1c(F)cc(F)cc1F)c1nc2c(s1)-c1ccccc1N(C(=O)c1ccc(NC(=O)c3cccnc3N3CC4(CCOCC4)C3)cc1)CC2` [Example 105], 0.01 to 0.05 µM.
With `O=C(Nc1c(F)cc(F)cc1Cl)c1nc2c(s1)-c1ccccc1N(C(=O)c1ccc(NC(=O)c3cccnc3N3CC4(CCOCC4)C3)cc1)CC2` [Example 106], the 50% effective concentration (EC50) lay in the range of 0.01 to 0.05 µM.
For `O=C(Nc1ccc(C(=O)N2CCc3nc(-c4nc5ccccc5[nH]4)sc3-c3ccccc32)cc1)c1cccnc1N1CC2(CCOCC2)C1` [Example 107] the value was 0.01 to 0.05 µM; for `O=C(Nc1c(F)cccc1F)c1nc2c(o1)-c1ccccc1N(C(=O)c1ccc(NC(=O)c3cccnc3N3CC4(CCOCC4)C3)cc1)CC2` [Example 108], 0.01 to 0.05 µM.
Consider `O=C(Nc1ccc(C(=O)N2CCc3nc(-c4nc5ccccc5[nH]4)oc3-c3ccccc32)cc1)c1cccnc1N1CC2(CCOCC2)C1` [Example 109], for which the concentration giving a half-maximal response (EC50) lay in the range of 0.01 to 0.05 µM.
For `Cc1ccc(C(=O)Nc2ccc(C(=O)N3CCc4cc(C(=O)Nc5c(F)cccc5F)sc4-c4ccc(F)cc43)cc2)c(N2CC3(CCOCC3)C2)n1` [Example 110] the value was less than 0.01 µM; for `Cc1ccc(C(=O)Nc2ccc(C(=O)N3CCc4cc(C(=O)Nc5c(F)cc(F)cc5F)sc4-c4ccc(F)cc43)cc2)c(N2CC3(CCOCC3)C2)n1` [Example 111], less than 0.01 µM; for `Cc1ccc(C(=O)Nc2ccc(C(=O)N3CCc4cc(C(=O)Nc5c(C)cccc5F)sc4-c4ccc(F)cc43)cc2)c(N2CC3(CCOCC3)C2)n1` [Example 112], less than 0.01 µM.
With `Cc1ccc(C(=O)Nc2ccc(C(=O)N3CCc4cc(C(=O)Nc5c(F)cccc5C(F)(F)F)sc4-c4ccc(F)cc43)cc2)c(N2CC3(CCOCC3)C2)n1` [Example 113] the figure was less than 0.01 µM; with `Cc1ccc(C(=O)Nc2ccc(C(=O)N3CCc4cc(C(=O)Nc5ccccc5F)sc4-c4ccc(F)cc43)cc2)c(N2CC3(CCOCC3)C2)n1` [Example 114], less than 0.01 µM.
Regarding `Cc1ccc(C(=O)Nc2ccc(C(=O)N3CCc4cc(C(=O)Nc5ncccc5F)sc4-c4ccc(F)cc43)cc2)c(N2CC3(CCOCC3)C2)n1` [Example 115], the concentration for a half-maximal effect (EC50) is less than 0.01 µM.
`Cc1ccc(C(=O)Nc2ccc(C(=O)N3CCc4cc(C(=O)Nc5c(C)cccc5C)sc4-c4ccc(F)cc43)cc2)c(N2CC3(CCOCC3)C2)n1` [Example 116]: the half-maximal effective concentration (EC50) is less than 0.01 µM.
With `Cc1cnc(N2CC3(CCOCC3)C2)c(C(=O)Nc2ccc(C(=O)N3CCc4cc(C(=O)Nc5c(F)cncc5F)sc4-c4ccc(F)cc43)cc2)c1` [Example 117] the figure was less than 0.01 µM.
For `Cc1cnc(N2CC3(CCOCC3)C2)c(C(=O)Nc2ccc(C(=O)N3CCc4cc(C(=O)Nc5ncccc5F)sc4-c4ccc(F)cc43)cc2)c1` [Example 118] the value was less than 0.01 µM; for `Cc1cnc(N2CC3(CCOCC3)C2)c(C(=O)Nc2ccc(C(=O)N3CCc4cc(C(=O)Nc5ncccc5C(F)(F)F)sc4-c4ccc(F)cc43)cc2)c1` [Example 119], less than 0.01 µM.
On to `Cc1cnc(N2CC3(CCOCC3)C2)c(C(=O)Nc2ccc(C(=O)N3CCc4cc(C(=O)Nc5ncccc5Cl)sc4-c4ccc(F)cc43)cc2)c1` [Example 120], for which the concentration for a half-maximal effect (EC50) was less than 0.01 µM.
For `Cc1cnc(N2CC3(CCOCC3)C2)c(C(=O)Nc2ccc(C(=O)N3CCc4cc(C(=O)NC5CC(C)(C)OC(C)(C)C5)sc4-c4ccc(F)cc43)cc2)c1` [Example 121] the value was less than 0.01 µM; for `Cc1cnc(N2CC3(CCOCC3)C2)c(C(=O)Nc2ccc(C(=O)N3CCc4cc(C(=O)NC5CCS(=O)(=O)CC5)sc4-c4ccc(F)cc43)cc2)c1` [Example 122], greater than 0.05 µM.
Take `Cc1cnc(N2CC3(CCOCC3)C2)c(C(=O)Nc2ccc(C(=O)N3CCc4cc(C(=O)NC5CC6CCC5O6)sc4-c4ccc(F)cc43)cc2)c1` (stereo not drawn) [Example 123]: the concentration giving a half-maximal response (EC50) was less than 0.01 µM.
As to `Cc1cnc(N2CC3(CCOCC3)C2)c(C(=O)Nc2ccc(C(=O)N3CCc4cc(C(=O)N[C@H]5CCOC5)sc4-c4ccc(F)cc43)cc2)c1` [Example 124], the EC50 is less than 0.01 µM.
Consider `Cc1cnc(N2CC3(CCOCC3)C2)c(C(=O)Nc2ccc(C(=O)N3CCc4cc(C(=O)Nc5ncco5)sc4-c4ccc(F)cc43)cc2)c1` [Example 125], for which the EC50 lay in the range of 0.01 to 0.05 µM.
With `Cc1cnc(N2CC3(CCOCC3)C2)c(C(=O)Nc2ccc(C(=O)N3CCc4cc(C(=O)Nc5cccnn5)sc4-c4ccc(F)cc43)cc2)c1` [Example 126], the EC50 is less than 0.01 µM.
As to `Cc1cnc(N2CC3(CCOCC3)C2)c(C(=O)Nc2ccc(C(=O)N3CCc4cc(C(=O)Nc5ccnnc5)sc4-c4ccc(F)cc43)cc2)c1` [Example 127], the EC50 lay in the range of 0.01 to 0.05 µM.
With `Cc1cnc(N2CC3(CCOCC3)C2)c(C(=O)Nc2ccc(C(=O)N3CCc4cc(C(=O)Nc5ncns5)sc4-c4ccc(F)cc43)cc2)c1` [Example 128] the figure was 0.01 to 0.05 µM.
With `Cc1cnc(N2CC3(CCOCC3)C2)c(C(=O)Nc2ccc(C(=O)N3CCc4cc(C(=O)NC5CCNC5)sc4-c4ccc(F)cc43)cc2)c1` (stereo not drawn) [Example 129] the figure was greater than 0.05 µM.
For the molecule `Cc1cnc(N2CC3(CCOCC3)C2)c(C(=O)Nc2ccc(C(=O)N3CCc4cc(C(=O)NC5CCOCC5)sc4-c4ccc(F)cc43)cc2)c1` [Example 130], the EC50 is less than 0.01 µM.
For `Cc1cnc(N2CC3(CCOCC3)C2)c(C(=O)Nc2ccc(C(=O)N3CCc4cc(C(=O)Nc5c(Cl)cncc5Cl)sc4-c4ccc(F)cc43)cc2)c1` [Example 131] the value was less than 0.01 µM.
